Each structure is given as a SMILES string.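 In this assay, cells in 96-well plates receive the compound at five concentrations for 48 hours. Endpoints are linearly interpolated between the surrounding concentrations. GI50 marks 50% less growth. TGI denotes the concentration required for complete inhibition of growth.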

Among the test systems are CAKI-1 renal; NCI-H23 lung; SF-295 CNS; NCI-H226 lung; HT29 colon; MDA-MB-435; SW-620 colon; RPMI-8226 leukemia; COLO 205 colon; UACC-257 melanoma.
Holding throughout (assay): NCI-60 cell line screen, 48 h

For the compound `CN(CCCCCCCCNc1ccnc2ccccc12)Cc1ccc(-c2ccc(-c3ccc(C#N)cc3)s2)cc1`, the GI50 was 1.3 µM in the assay with CAKI-1 renal; 0.84 µM in the assay with NCI-H23 lung; 0.501 µM in the assay on SF-295 CNS; 1.17 µM with NCI-H226 lung; 0.318 µM in the assay on HT29 colon; 1.19 µM in the assay with MDA-MB-435. Further, the GI50 in the assay on SW-620 colon is 0.178 µM; with RPMI-8226 leukemia, 0.164 µM; with COLO 205 colon, 0.63 µM; in the assay on UACC-257 melanoma, 0.482 µM. For the same compound, the TGI in the assay with CAKI-1 renal was found to be 2.65 µM; in the assay on NCI-H23 lung, 2.42 µM; with SF-295 CNS it was 1.26 µM; in the assay with NCI-H226 lung, 3.17 µM; in the assay on HT29 colon, 1.77 µM; with MDA-MB-435, 2.5 µM. Besides, the TGI in the assay on SW-620 colon was determined as 0.432 µM; in the assay with RPMI-8226 leukemia, 0.571 µM; with COLO 205 colon it was 2.17 µM; in the assay on UACC-257 melanoma it was 1.6 µM.

Regarding `Oc1ccccc1/C=N\Nc1ccccc1`, the GI50 in the assay with CAKI-1 renal was 1.64 µM; in the assay with NCI-H23 lung, 12 µM; in the assay with SF-295 CNS, 1.63 µM; with NCI-H226 lung it was 3.13 µM; in the assay with HT29 colon, 9.39 µM; with MDA-MB-435, 2.87 µM. For the same compound, the GI50 is 2.94 µM with SW-620 colon, 3.99 µM with RPMI-8226 leukemia, 5.92 µM in the assay with COLO 205 colon and 31.1 µM in the assay on UACC-257 melanoma. Also, the TGI in the assay on CAKI-1 renal was 21.4 µM; in the assay with NCI-H23 lung, 84.1 µM; with SF-295 CNS, 8.07 µM; in the assay with NCI-H226 lung, 31.4 µM; with HT29 colon, 28.4 µM; in the assay on MDA-MB-435 it was more than 100 µM. Besides, the TGI in the assay on SW-620 colon was more than 100 µM; in the assay on RPMI-8226 leukemia it was 56.8 µM; with COLO 205 colon it was 21.3 µM; in the assay on UACC-257 melanoma it was more than 100 µM.

On to `O=C1c2c(c3c4ccccc4n(CCCCCCN4CCOCC4)c3c3[nH]c4ccccc4c23)C(=O)N1O`, for which the GI50 is 8.98 µM in the assay with CAKI-1 renal; 15.8 µM with NCI-H23 lung; 16.8 µM in the assay with SF-295 CNS; more than 32.5 µM in the assay with NCI-H226 lung; 3.39 µM with HT29 colon; 3.72 µM in the assay on MDA-MB-435. Besides, the GI50 in the assay with SW-620 colon is 1.68 µM; in the assay on RPMI-8226 leukemia it was 2.57 µM; in the assay with COLO 205 colon, 4.74 µM; in the assay with UACC-257 melanoma, 24.5 µM. The TGI with CAKI-1 renal was 28.9 µM; in the assay on NCI-H23 lung, 45.9 µM; in the assay on SF-295 CNS it was 35.7 µM; with NCI-H226 lung, more than 80.4 µM; with HT29 colon, 18.1 µM; in the assay with MDA-MB-435, 20.1 µM. Moreover, the TGI in the assay with SW-620 colon was determined as 3.93 µM; in the assay on RPMI-8226 leukemia, 7.76 µM; in the assay with COLO 205 colon, 21.9 µM; in the assay on UACC-257 melanoma it was 56.6 µM.

For `O=C(CS(=O)c1nc2ccccc2nc1-c1ccccc1)Nc1ccc(Cl)cc1` (stereo not given), the GI50 in the assay with CAKI-1 renal was 20.1 µM; in the assay with NCI-H23 lung, 30.7 µM; in the assay on SF-295 CNS, 15.7 µM; with NCI-H226 lung it was 23.1 µM; in the assay on HT29 colon, 48.5 µM; with MDA-MB-435, 18.1 µM. Also, the GI50 in the assay on SW-620 colon is 26.7 µM; in the assay on RPMI-8226 leukemia it was 20.6 µM; with COLO 205 colon it was 23.4 µM; with UACC-257 melanoma it was 24.7 µM. The TGI in the assay on CAKI-1 renal is 57.5 µM; in the assay on NCI-H23 lung it was more than 100 µM; with SF-295 CNS it was 48.7 µM; in the assay with NCI-H226 lung, 47.8 µM; with HT29 colon, more than 100 µM; in the assay with MDA-MB-435, 41.4 µM. Further, the TGI in the assay with SW-620 colon amounted to 88.2 µM; in the assay on RPMI-8226 leukemia, 58.8 µM; with COLO 205 colon it was 58.6 µM; in the assay on UACC-257 melanoma, 77.3 µM.

Turning to `Cn1c2ccccc2c2c(=O)n(CCCC(=O)NCCc3cnc[nH]3)c3c(-c4ccccc4)nnn3c21`, the GI50 in the assay on CAKI-1 renal is 12 µM; with NCI-H23 lung, 13.3 µM; in the assay on SF-295 CNS, 9.18 µM; in the assay with NCI-H226 lung it was more than 50 µM; with HT29 colon, 8.55 µM; with MDA-MB-435 it was 10.2 µM. Further, the GI50 in the assay on SW-620 colon is 13 µM; in the assay with RPMI-8226 leukemia, 10.5 µM; in the assay on COLO 205 colon it was 8.51 µM; in the assay with UACC-257 melanoma it was 12 µM. The TGI in the assay on CAKI-1 renal is 33.4 µM; in the assay with NCI-H23 lung, 46.9 µM; with SF-295 CNS, 17.8 µM; with NCI-H226 lung, more than 50 µM; with HT29 colon it was 17.9 µM; with MDA-MB-435, 20 µM. Also, the TGI stood at 30.2 µM in the assay with SW-620 colon, 28.6 µM in the assay with RPMI-8226 leukemia, 19.6 µM in the assay with COLO 205 colon and 21.6 µM with UACC-257 melanoma.

For the compound `Cc1c(C(=O)/C=C/c2ccc(Cl)cc2)nnn1-c1ccnc2c(C(F)(F)F)cccc12`, the GI50 was 53.7 µM in the assay with CAKI-1 renal; 35.8 µM in the assay with NCI-H23 lung; 26.9 µM in the assay with SF-295 CNS; 22.6 µM in the assay on NCI-H226 lung; 8.24 µM in the assay on HT29 colon; more than 100 µM in the assay on MDA-MB-435. The GI50 was more than 100 µM with SW-620 colon, 8.47 µM in the assay on RPMI-8226 leukemia, more than 100 µM in the assay with COLO 205 colon and 30.2 µM in the assay with UACC-257 melanoma. In addition, the TGI in the assay with CAKI-1 renal, in the assay on NCI-H23 lung, in the assay on SF-295 CNS, in the assay with NCI-H226 lung, in the assay on HT29 colon and in the assay with MDA-MB-435 was more than 100 µM throughout. Besides, the TGI in the assay on SW-620 colon, with RPMI-8226 leukemia, in the assay with COLO 205 colon and in the assay with UACC-257 melanoma was more than 100 µM each time.

`CCCCCCCCCCCCSC1=CC(=O)C=CC1=O`: the GI50 is 3.26 µM with CAKI-1 renal; 5.69 µM in the assay on NCI-H23 lung; 1.44 µM with SF-295 CNS; 6.58 µM in the assay with NCI-H226 lung; 27.1 µM in the assay with HT29 colon; 15.6 µM in the assay on MDA-MB-435. The GI50 with SW-620 colon is 17.9 µM; in the assay on RPMI-8226 leukemia it was 0.804 µM; in the assay with COLO 205 colon, 20.9 µM; in the assay on UACC-257 melanoma, 4.01 µM. Also, the TGI in the assay on CAKI-1 renal was 24.2 µM; in the assay with NCI-H23 lung it was 21.6 µM; in the assay on SF-295 CNS, 4.75 µM; in the assay on NCI-H226 lung it was 19 µM; with HT29 colon, more than 50 µM; with MDA-MB-435, more than 50 µM. Also, the TGI in the assay on SW-620 colon is more than 50 µM; with RPMI-8226 leukemia, 3.46 µM; in the assay on COLO 205 colon, more than 36.2 µM; with UACC-257 melanoma, 15.9 µM.

Source of the values: PubChem BioAssay (NCI).
